# Results reported in patent US12161686B2, “Natural preservatives and antimicrobial agents, including compositions thereof” (Unigen, Inc., priority 2015, dated 2024).
# Key:
# Assay type in all cases: cell-based
# [1] = test system: Escherichia coli (ATCC 8739); assay: Minimum Inhibitory Concentration Method (MIC/MBC), broth dilution
# Protocol: (§1) Minimum Inhibitory Concentration against bacterial S. aureus, P. aeruginosa, E. coli, and fungi A. brasiliensis and C. albicans were determined for Albizia amara seeds extract and the active marker compound bundmunchiamine C. The Minimum Inhibitory Concentration Method (MIC) is carried out following the general microbiological protocol to measure the lowest level of an antimicrobial agent that can inhibit microbial proliferation in liquid. Test microorganisms are prepared in liquid culture medium for bacteria or on agar for fungi. Suspensions of test microorganisms are standardized by dilution in appropriate broth solution, usually Mueller-Hinton broth. The test substance is prepared by conducting several serial 1:1 dilutions in a 96-well microtiter plate or in small test tubes, through Mueller-Hinton broth or other appropriate medium. All wells or tubes containing diluted test substances are inoculated with test microorganisms, individually, resulting in one additional and final dilution of the product in all test vessels. The microtiter plate or test tubes are incubated for 18-24 hours. After the incubation period, observations are made to determine the minimum concentration (MIC) which is the lowest concentration of test substance in a well where no turbidity (indicative of test microorganism growth) is observed and minimum bactericidal concentration (MBC).
# (§2) The Albizia amara seeds extract RN368-31-MIX and budmunchiamine C were tested against five microorganisms required for category 2 including Staphylococcus aureus (ATCC 6538), Escherichia coli (ATCC 8739), Pseudomonas aeruginosa (ATCC 9027), Candida albicans (ATCC 10231), Aspergillus brasiliensis (ATCC 16404).
# [2] = test system: Pseudomonas aeruginosa (ATCC 9027); assay: as above
# Protocol: as §1, §2
# [3] = test system: Staphylococcus aureus (ATCC 6538); assay: as above
# Protocol: as §1, §2
# [4] = test system: Aspergillus brasiliensis (ATCC 16404); assay: Minimum Inhibitory Concentration Method (MIC/MBC), broth dilution; FIC index
# Protocol: (§3) Minimum Inhibitory Concentration against bacterial S. aureus, P. aeruginosa, E. coli, and fungi A. brasiliensis and C. albicans were determined for Albizia amara seeds extract and the active marker compound bundmunchiamine C. The Minimum Inhibitory Concentration Method (MIC) is carried out following the general microbiological protocol to measure the lowest level of an antimicrobial agent that can inhibit microbial proliferation in liquid. Test microorganisms are prepared in liquid culture medium for bacteria or on agar for fungi. Suspensions of test microorganisms are standardized by dilution in appropriate broth solution, usually Mueller-Hinton broth. […]
# (§4) In vitro antifungal combinations are commonly evaluated on the basis of the fractional inhibitory concentration (FIC) index, which represents the sum of the FIC of each substance tested. […]
# (§5) The fractional inhibitory concentration (FIC) was calculated with the equation: FIC of drug A (FIC A)=MIC of drug A in combination/MIC of drug A alone, and FIC of drug B (FIC B)=MIC of drug B in combination/MIC of drug B alone]. The FIC Index (FICI), calculated as the sum of each FIC (YFIC). The calculated index of 1A:1M and 1A:3M against C. albicans were 0.187 and 0.292. […]
# [5] = test system: Candida albicans (ATCC 10231); assay: as above
# Protocol: as §3, §4, §5
# Streptococcus pyogenes = assay: Minimum Inhibitory Concentration Method (MIC/MBC)
substance,measurement,setting,value
budmunchiamine C,MBC Escherichia coli,[1],31.25 µg/mL
same,MIC Escherichia coli,[1]; neutral condition,31.25 µg/mL
same,MBC Pseudomonas aeruginosa,[2],62.5 µg/mL
same,MIC Pseudomonas aeruginosa,[2],62.5 µg/mL
same,MBC Staphylococcus aureus,[3],31.25 µg/mL
same,MIC Staphylococcus aureus,[3],31.25 µg/mL
same,MIC Aspergillus brasiliensis,[4],125 µg/mL
same,MBC Candida albicans,[5],125 µg/mL
same,MIC Streptococcus pyogenes,Streptococcus pyogenes,< 0.97 µg/mL
